Assay results from US10794897B2, “System and methods for predicting drug-induced inotropic and pro-arrhythmia risk” (AnaBios Corporation, priority 2017, dated 2020).
Like-named read-outs stand apart in the source and are kept apart here.

Key:
[1] = tested on: ex vivo human ventricular trabeculae preparation
[2] = tested on: human cardiomyocyte preparation; conditions: for concentration from which ACs were induced: human
[3] = tested on: human cardiomyocyte preparation; assay: human cardiomyocyte contractility transients (system 20 validation with reference drugs); conditions: human cardiomyocytes
[4] = tested on: ex vivo human ventricular trabeculae preparation; assay: ex vivo human ventricular trabeculae force of contraction

CC(C)NCC(O)c1ccc(O)c(O)c1 (stereo not shown) [isoproterenol]
AC incidence [1]: did not induce any ACs | TR90 [1]: decrease | AC incidence [2]: induced no AC | CE incidence [2]: no CE incidence | TR90 [2]: decreased | FSF ([3]; positive inotropes): increased | maximum contraction velocity ([3]; positive inotropes): increased | maximum contraction velocity time ([3]; positive inotropes): increased | maximum relaxation velocity ([3]; positive inotropes): increased | maximum relaxation velocity time ([3]; positive inotropes): no effects | peak height ([3]; positive inotropes): increased | time to 10% peak ([3]; positive inotropes): decreased | time to 50% peak ([3]; positive inotropes): decreased | time to peak ([3]; positive inotropes): no effects | increase of MAC ([4]; human ventricular trabeculae, at 0.03 μM): 315%

C[C@@H]1CC(=O)NN=C1c1ccc(NN=C(C#N)C#N)cc1 [levosimendan]
AC incidence ([3]; at 10-fold the fETPC): levosimendan did | CE incidence ([3]; positive inotropes): no CE incidence | FSF ([3]; positive inotropes): increased | TR90 ([3]; positive inotropes): no effect | maximum contraction velocity ([3]; positive inotropes): increased | maximum contraction velocity time ([3]; positive inotropes): no effect | maximum relaxation velocity ([3]; positive inotropes): increased | maximum relaxation velocity time ([3]; positive inotropes): no effects | peak height ([3]; positive inotropes): increased | time to 10% peak ([3]; positive inotropes): no effect | time to 50% peak ([3]; positive inotropes): no effect | time to peak ([3]; positive inotropes): no effects

COc1cc(N)c(Cl)cc1C(=O)NC1CCN(CCCOc2ccc(F)cc2)CC1OC (stereo not shown) [cisapride]
AC (after-contraction) incidence [2]: seen starting at the fETPC | sarcomere shortening [2]: inhibited

O=c1[nH]c2ccccc2n1CCCN1CCC(n2c(=O)[nH]c3cc(Cl)ccc32)CC1 [domperidone]
AC (after-contraction) incidence [2]: seen starting at the fETPC | sarcomere shortening [2]: inhibited

COc1ccccc1OCC(O)CN1CCN(CC(=O)Nc2c(C)cccc2C)CC1 (stereo not shown) [ranolazine]
AC incidence [2]: induced no ACs | sarcomere shortening [2]: inhibited

CN(CCOc1ccc(NS(C)(=O)=O)cc1)CCc1ccc(NS(C)(=O)=O)cc1 [dofetilide]
sarcomere shortening [2]: no effects | concentration from which ACs were induced [2]: 10 -fold the fETPC | MAC (maximum amplitude of force of contraction) ([4]; human ventricular trabeculae): no effects | TR90 ([4]; human ventricular trabeculae): concentration-dependent increase | AC incidence ([4]; human ventricular trabeculae, starting at the fETPC): observed starting at the fETPC

C=C[C@H]1C[N@@]2CC[C@H]1C[C@@H]2[C@@H](O)c1ccnc2ccc(OC)cc12 [quinidine]
AC (after-contraction) incidence [2]: concentration-dependent increases | CE (contractility escape) incidence [2]: concentration-dependent increases | TR90 (time to 90% relaxation) [2]: prolongation

CC[C@H]1OC(=O)[C@H](C)[C@@H](O[C@H]2C[C@@](C)(OC)[C@@H](O)[C@H](C)O2)[C@H](C)[C@@H](O[C@@H]2O[C@H](C)C[C@H](N(C)C)[C@H]2O)[C@](C)(OC)C[C@@H](C)C(=O)[C@H](C)[C@@H](O)[C@]1(C)O [clarithromycin]
sarcomere shortening [2]: inhibited | concentration from which ACs were induced [2]: 10 -fold the fETPC

COc1ccc(CCN(C)CCCC(C#N)(c2ccc(OC)c(OC)c2)C(C)C)cc1OC (stereo not shown) [verapamil]
AC incidence ([3]; up to 222-fold the fETPC): neither AC or CE incidence | CE incidence ([3]; up to 222-fold the fETPC): neither AC or CE incidence | TR90 ([3]; up to 222-fold the fETPC): no change | IC50 ([4]; Homo sapiens, read-out: IC50 for decrease of MAC): 1.46 µM

Cc1cccc(C)c1OCC(C)N (stereo not shown) [mexiletine]
AC incidence [2]: induced no ACs | sarcomere shortening [2]: inhibited

CC(C)NCC(O)c1ccc(NS(C)(=O)=O)cc1 (racemic) [sotalol, d,l-sotalol]
TR90 [1]: concentration-dependent increase | sarcomere shortening [2]: no effects | concentration from which ACs were induced [2]: 10 -fold the fETPC
